The values that follow come from patent US20140221301A1, “COMBINATION TREATMENT FOR CANCER” (priority 2011, published 2014).

Where only a bound is given, the exact number is not on record here.

The subject of one data set is leukemia cell lines. The data set is described as follows: Cell growth and viability, MTS assay, leukemia cell lines. The conditions noted are these: 72 hours, tested leukemia cell lines. It counts as cell-based. The protocol: (§1) FIG. 1. […] (A) TEX and (B) M9-ENL1 cells were plated in 96-well plates and drugs were added to the wells (5 μL per well) for final concentrations of 10 μM (shown) and 1 μM. Cell growth and viability was measured at 48 hours (M9-ENL-1) and 72 hours (TEX) by MTS assay. Cell viability is shown for each compound as a percent of cells treated with DMSO alone. (C) Leukemia, (D) myeloma, and (E) solid tumor cell lines were seeded in 96-well plates and then treated with increasing concentrations of tigecycline. Cell growth and viability was measured at 72 hours by MTS assay. Cell viability is expressed as mean percentage plus or minus SD (n=3) relative to vehicle-treated cells. […] Cell viability was measured at 72 hours by MTS assay. Cell viability is expressed as mean percentage plus or minus SD (n=3) relative to vehicle-treated cells.
(§2) Human leukemia (OCI-AML2, HL60, U937) cell lines were maintained in RPMI 1640 medium. Myeloma (LP-1, KMS11, 8226, JJN3, OP-M2) cell lines were maintained in Iscove's media. […]
(§3) Cell growth and viability was assessed by the MTS assay (Promega, Madison, Wis.) according to the manufacturer's instructions. Apoptosis and cell death was measured by Annexin V-fluroscein isothiocyanate (FITC; Biovision Research Products, Mountain View, Calif.), propidium iodide staining and flow cytometry according to the manufacturer's instructions and as previously described^30.
(In general: Tetrazolium assays rely on reduction of a dye to a coloured formazan, in cell work by metabolically active cells.)

Another data set deals with myeloma cell lines. In words: Cell growth and viability, MTS assay, myeloma cell lines. In kind it is cell-based. The conditions noted are these: 72 hours. The protocol:
as §1, §2, §3

The subject of data set [1] is primary AML patient samples. In words: Cell viability by Annexin V staining, primary AML patient samples. It counts as cell-based, human. The protocol: as §3
Data set [2] deals with primary AML patient samples. In words: Methylcellulose colony formation assay, primary AML cells. In kind it is cell-based, human. The note with it: 5 μM, primary AML patient samples n=7, 7 days. As to the method: FIG. 2. Tigecycline induces cell death and inhibits clonogenic growth in primary AML cells preferential over normal hematopoietic cells. Mononuclear cells from peripheral blood of leukemia patients (blast count>80%) and normal G-CSF expanded donors was treated with increasing concentrations of tigecycline for 48 hours. Cell viability was measured by Annexin-PI flow cytometry staining. Cell viability is expressed as a mean percentage plus or minus SD (n=3) relative to DMSO-treated cells. Mononuclear cells from primary AML patient samples (A, B) and normal peripheral blood cells (C) were plated in methylcelluose with 5 μM of Tigecycline. (D) Colony forming units were counted at 7 days (AML) and 14 days (Normal) post plating. […]
To assess clonogenic growth, primary AML cells (1.0×10^5/mL) or granulocyte colony-stimulating factor (G-CSF) mobilized PBSCs (1.0×10^5/mL) were plated in duplicate with increasing concentrations of tigecycline in MethoCult GF H4434 medium (StemCell Technologies, Vancouver, BC) containing 1% methycellulose in IMDM, 30% FCS, 1% bovine serum albumin, 3 U/mL of recombinant human erythropoietin, 10^−4 M of 2-mercaptoethanol, 2 mM of L-glutamine, 50 ng/mL of recombinant human stem cell factor, 10 ng/mL of GM-CSF, and 10 ng/mL of rh IL-3). Seven days (AML samples) or 14 days (normal PBCS) after plating, the number of colonies was counted as previously described^31.

With `CN(C)c1cc(NC(=O)CNC(C)(C)C)c(O)c2c1C[C@H]1C[C@H]3[C@H](N(C)C)C(O)=C(C(N)=O)C(=O)[C@@]3(O)C(O)=C1C2=O` [tigecycline], the IC50 (as a rule, the concentration that inhibits the measured activity by half) in the data set on leukemia cell lines is 5 to 8 µM; with myeloma cell lines it was greater than 10 µM. Further, the “relation of induced cytotoxicity to mitochondrial mass” value in data set [1] (AML samples, 5 μM and 10 μM, 48 hours) is “correlates with increasing mitochondrial mass”. Moreover, the LD50 is greater than 9 µM in data set [1] (more resistant group of patients, n=7, 48 hours) and 5 µM in data set [1] (sensitive subset of leukemia patients, n=13, 48 hours). Moreover, the “reduction of clonogenic growth” value in data set [2] was 93±4%.
